# Legend:
# Type in all cases: cell-based
# [1] = system: Acinetobacter baumannii, which is a normal strain; experiment: Rezazurin assay, MIC and MBC, normal strain (control)
# [2] = system: carbapenem-resistant Acinetobacter baumannii (KUMC.2014.90); experiment: Rezazurin assay, MIC and MBC, carbapenem-resistant strain KUMC.2014.90
# [3] = system: carbapenem-resistant Acinetobacter baumannii (KUMC.2014.91); experiment: Rezazurin assay, MIC and MBC, carbapenem-resistant strain KUMC.2014.91
smiles,measurement,setting,value
CC1(C)S[C@@H]2[C@H](NC(=O)[C@H](N)c3ccccc3)C(=O)N2[C@H]1C(=O)O [Ampicillin],growth inhibition (in words),[1],inhibited the growth
same,MIC50,"[1]; 50% inhibitory concentration, testing range 0.45~500",< 31.3 µg/mL
same,MIC80,"[1]; 80% inhibitory concentration, testing range 0.45~500",< 62.5 µg/mL
same,MBC,[1]; testing range 0.45~500,< 62.5 µg/mL
same,MIC 50%,"[2]; Acinetobacter baumannii (KUMC.2014.90), 50% inhibitory concentration, testing range 0.45~500",No effect
same,MIC 80%,"[2]; Acinetobacter baumannii (KUMC.2014.90), 80% inhibitory concentration, testing range 0.45~500",No effect
same,MBC,"[2]; Acinetobacter baumannii (KUMC.2014.90), testing range 0.45~500",No effect
same,growth inhibition (in words),[2]; carbapenem-resistant KUMC.2014.90 strain,unable to inhibit the growth
same,MIC 50%,"[3]; Acinetobacter baumannii (KUMC.2014.91), 50% inhibitory concentration, testing range 0.45~500",No effect
same,MIC 80%,"[3]; Acinetobacter baumannii (KUMC.2014.91), 80% inhibitory concentration, testing range 0.45~500",No effect
same,MBC,"[3]; Acinetobacter baumannii (KUMC.2014.91), testing range 0.45~500",No effect
same,growth inhibition (in words),[3]; carbapenem-resistant KUMC.2014.91 strain,unable to inhibit the growth
